According to patent US9290505B2, “Substituted imidazo[1,2-a]pyrazines as Syk inhibitors” (Gilead Sciences, Inc., priority 2013, dated 2016):
Converted amounts (≈) assume the structure as drawn.

Assays:
[1] = test system: human hepatocytes; test: Human Hepatocyte Stability Assay; format: in vitro ADME; settings: predicted hepatocyte clearance, 1 μM compound
Description: The human […] stability of the compounds as predicted hepatocyte clearance in L/hr/kg was assessed. Compounds to be tested were diluted to 200 μM (4 μl of 10 mM DMSO stock into 196 μl ACN:H2O (50:50). Propranolol was used as a positive control, and buffer only without hepatocytes as 0% control. These were further diluted 4 μl with 891 μl KHB buffer (InVitroGRO catalog number Z99074) to provide 2× dosing solution. To each well of 24 well plate, 250 μl of the 2× dosing solution was added to each well with 250 μl of hepatocytes cells (1×10^6 viable cells/ml per well) or KHB for control samples to achieve a final compound concentration of 1 μM during incubation. The final solvent concentration was 0.01% DMSO and 0.25% ACN. The culture plate was placed on a rocker and incubated at 37° C., 5% CO2. Samples were collected at time 0, 1, 3, and 6 hours. The loss of parent compound was determined using LC-MS methods against a standard curve.

[2] = Kinetic solubility in phosphate buffer at pH 7.4; format: physicochemical
Description: The kinetic solubility of compounds in phosphate buffer at pH 7.4 was assessed. The compounds to be tested were dissolved in dimethylsulfoxide at a 10 mM concentration. Stock samples were diluted, 3 μl with 297 μl of the phosphate buffer at pH 7.4 (DulBecco's phosphate buffered saline (Sigma-Aldrich D8662), overall molarity is 0.149M and pH 7.43). The samples were then incubated for 24 hours at 37° C. with shaking, the centrifuged and an aliquot taken and tested relative to a known standard concentration of 0.1 mM.

[3] = target: Syk (Homo sapiens (Human), UniProt P43405); test: High Throughput Syk Biochemical Assay (KinEASE TR-FRET)
Description: Syk activity was measured using KinEASE (Cisbio), a time-resolved fluorescence resonance energy transfer (TR-FRET) immunoassay. In this assay, Syk-catalyzes the phosphorylation of a XL665-labeled peptide substrate. Europium conjugated phospho-tyrosine specific antibody binds the resulting phosphorylated peptide. Formation of phosphorylated peptide is quantified by TR-FRET with Europium as the donor and XL665 the acceptor in a 2-step endpoint assay. In brief, test compounds serially diluted in DMSO were delivered into Corning white, low volume, non-binding 384 well plates using the Echo 550 acoustic liquid dispenser (Labcyte®). Syk enzyme and substrates were dispensed into assay plates using a Multi-Flo (Bio-Tek Instruments).

[4] = aqueous buffer, kinetic from dmso stock, kinetic solubility, phosphate buffer pH 7.4, 24 hours at 37° C.
[5] = comparison table, kinetic solubility pH 7.4
[6] = comparison table with known Syk inhibitors
[7] = phosphate buffer, 37 °C, aqueous buffer, kinetic from dmso stock, comparison table, kinetic solubility pH 7.4

Structure (SMILES) | Hheps CL [1] [mL/min/kg] | solubility at 24 h [2, 4] [µM] | solubility at 24 h [2, 5] [µM] | IC50 ([3]; 20 μM ATP, 0.015 nM Syk) [nM] | IC50 [3, 6] [nM] | solubility at 24 h [2, 7] [µM]
Cc1ncc(-c2cn3ccnc3c(Nc3ccc(N4CCN(C5COC5)CC4)cc3)n2)nc1N [Ex.-1, 6-(6-amino-5-methylpyrazin-2-yl)-N-(4-(4-(oxetan-3-yl)piperazin-1-yl)phenyl)imidazo[1,2-a]pyrazin-8-amine] | 2 | 95 (≈ 43.5 µg/mL) | 95 (≈ 43.5 µg/mL) | 6.2 | 6.2 | –
Cc1ncc(-c2cn3ccnc3c(Nc3ccc(N4CCOCC4)cc3)n2)cc1N [6-(5-amino-6-methylpyridin-3-yl)-N-(4-morpholinophenyl)imidazo[1,2-a]pyrazin-8-amine, reference compound] | – | – | – | – | 16 | 5 (≈ 2.01 µg/mL)
Nc1cncc(-c2cn3ccnc3c(Nc3ccc(N4CCN(C5COC5)CC4)cc3)n2)n1 [Ex.-2, 6-(6-aminopyrazin-2-yl)-N-(4-(4-(oxetan-3-yl)piperazin-1-yl)phenyl)imidazo[1,2-a]pyrazin-8-amine] | 0.917 | 95 (≈ 42.1 µg/mL) | 95 (≈ 42.1 µg/mL) | – | – | –
COc1ccc(Nc2nc(-c3ccc(N)nc3)cn3ccnc23)cc1OC [6-(6-aminopyridin-3-yl)-N-(3,4-dimethoxyphenyl)imidazo[1,2-a]pyrazin-8-amine, reference compound] | – | – | – | – | 53 | 10 (≈ 3.62 µg/mL)
COc1ccc(Nc2nc(-c3cccc(N)c3)cn3ccnc23)cc1OC [6-(3-aminophenyl)-N-(3,4-dimethoxyphenyl)imidazo[1,2-a]pyrazin-8-amine, reference compound] | – | – | – | – | 188 | 3 (≈ 1.08 µg/mL)
Nc1cncc(-c2cn3ccnc3c(Nc3ccc(N4CCOCC4)cc3)n2)c1 [6-(5-aminopyridin-3-yl)-N-(4-morpholinophenyl)imidazo[1,2-a]pyrazin-8-amine, reference compound] | – | – | – | – | 31 | 5 (≈ 1.94 µg/mL)

Second part, the molecule after the results:

Hheps CL [1] [mL/min/kg] | solubility at 24 h [2, 4] [µM] | solubility at 24 h [2, 5] [µM] | IC50 ([3]; 20 μM ATP, 0.015 nM Syk) [nM] | IC50 [3, 6] [nM] | solubility at 24 h [2, 7] [µM] | Structure (SMILES)
1.3 | 99 (≈ 47.1 µg/mL) | 99 (≈ 47.1 µg/mL) | 14.5 | 14.5 | – | Nc1cncc(-c2cn3ccnc3c(Nc3ccc(N4CCN(CC(CO)CO)CC4)cc3)n2)n1 [Ex.-6, 2-((4-(4-((6-(6-aminopyrazin-2-yl)imidazo[1,2-a]pyrazin-8-yl)amino)phenyl)piperazin-1-yl)methyl)propane-1,3-diol]
1.3 | 100 (≈ 45.8 µg/mL) | 100 (≈ 45.8 µg/mL) | 44 | 44 | – | Cc1c(-c2cncc(N)n2)nc(Nc2ccc(N3CCN(C4COC4)CC3)cc2)c2nccn12 [Ex.-4, 6-(6-aminopyrazin-2-yl)-5-methyl-N-(4-(4-(oxetan-3-yl)piperazin-1-yl)phenyl)imidazo[1,2-a]pyrazin-8-amine]
0.83 | – | – | 8.7 | 8.7 | – | Cc1ncc(-c2cn3ccnc3c(Nc3ccc(N4CCN(C5COC5)CC4)c(OCCO)c3)n2)nc1N [Ex.-7, 2-(5-((6-(6-amino-5-methylpyrazin-2-yl)imidazo[1,2-a]pyrazin-8-yl)amino)-2-(4-(oxetan-3-yl)piperazin-1-yl)phenoxy)ethanol]
1.2 | 97 (≈ 48.8 µg/mL) | 97 (≈ 48.8 µg/mL) | 12.2 | 12.2 | – | Nc1cncc(-c2cn3ccnc3c(Nc3ccc(N4CCN(C5COC5)CC4)c(OCCO)c3)n2)n1 [Ex.-5, 2-(5-((6-(6-aminopyrazin-2-yl)imidazo[1,2-a]pyrazin-8-yl)amino)-2-(4-(oxetan-3-yl)piperazin-1-yl)phenoxy)ethanol]
1.5 | 91 (≈ 38.1 µg/mL) | 91 (≈ 38.1 µg/mL) | 13.3 | 13.3 | – | Nc1cncc(-c2cn3ccnc3c(Nc3ccc(N4CCO[C@@H](CO)C4)cc3)n2)n1 [Ex.-3, (R)-(4-(4-((6-(6-aminopyrazin-2-yl)imidazo[1,2-a]pyrazin-8-yl)amino)phenyl)morpholin-2-yl)methanol]
